Drawing on publication PMC11335192, “Unveiling the crucial role of betaine: modulation of GABA homeostasis via SLC6A1 transporter (GAT1)” (Cellular and Molecular Life Sciences: CMLS, 2024), this text covers EC50 for one molecule.

Holding throughout (type): cell-based
The target in assay [1] is T1, rat GAT1 (rGAT1) (Rattus norvegicus, UniProt P23978).
T1 construct: gene Slc6a1
The assay can be described thus: TEVC transport currents in Xenopus oocytes; LC-MS/MS uptake; [3H]-GABA efflux in HEK293-rGAT1 cells.

In assay [2] the target is T2, human GAT1 (hGAT1) (Homo sapiens, UniProt P30531).
T2 construct: gene SLC6A1
Briefly: automated whole-cell patch clamp (Patchliner) on CHO cells overexpressing hGAT1. A general note: Patch clamp records ionic current or voltage across a cell membrane.

Assay [3] concerns the target T3, canine BGT-1 (cBGT-1) (Canis lupus, UniProt P27799).
T3 construct: gene SLC6A12
T3 sequence (P27799 1-614): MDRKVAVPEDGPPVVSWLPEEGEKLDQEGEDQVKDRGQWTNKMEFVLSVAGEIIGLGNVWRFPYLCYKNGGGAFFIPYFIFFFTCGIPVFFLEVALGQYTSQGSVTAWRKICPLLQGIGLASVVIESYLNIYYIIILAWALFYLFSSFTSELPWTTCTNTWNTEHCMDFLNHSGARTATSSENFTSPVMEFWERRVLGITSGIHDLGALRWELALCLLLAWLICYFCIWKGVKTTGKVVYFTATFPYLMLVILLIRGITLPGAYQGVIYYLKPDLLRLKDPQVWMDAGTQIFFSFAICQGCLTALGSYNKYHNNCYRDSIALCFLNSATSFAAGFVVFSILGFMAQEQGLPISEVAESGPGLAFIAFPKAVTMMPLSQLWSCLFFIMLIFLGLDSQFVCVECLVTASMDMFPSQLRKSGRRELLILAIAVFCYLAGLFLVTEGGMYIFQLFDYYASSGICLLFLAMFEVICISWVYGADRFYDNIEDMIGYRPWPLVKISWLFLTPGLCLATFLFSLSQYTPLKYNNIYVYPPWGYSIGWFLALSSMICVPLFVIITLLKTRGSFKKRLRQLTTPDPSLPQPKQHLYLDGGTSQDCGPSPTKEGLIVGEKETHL
Briefly: TEVC transport currents in Xenopus oocytes.

T2 sequence (P30531 whole entry): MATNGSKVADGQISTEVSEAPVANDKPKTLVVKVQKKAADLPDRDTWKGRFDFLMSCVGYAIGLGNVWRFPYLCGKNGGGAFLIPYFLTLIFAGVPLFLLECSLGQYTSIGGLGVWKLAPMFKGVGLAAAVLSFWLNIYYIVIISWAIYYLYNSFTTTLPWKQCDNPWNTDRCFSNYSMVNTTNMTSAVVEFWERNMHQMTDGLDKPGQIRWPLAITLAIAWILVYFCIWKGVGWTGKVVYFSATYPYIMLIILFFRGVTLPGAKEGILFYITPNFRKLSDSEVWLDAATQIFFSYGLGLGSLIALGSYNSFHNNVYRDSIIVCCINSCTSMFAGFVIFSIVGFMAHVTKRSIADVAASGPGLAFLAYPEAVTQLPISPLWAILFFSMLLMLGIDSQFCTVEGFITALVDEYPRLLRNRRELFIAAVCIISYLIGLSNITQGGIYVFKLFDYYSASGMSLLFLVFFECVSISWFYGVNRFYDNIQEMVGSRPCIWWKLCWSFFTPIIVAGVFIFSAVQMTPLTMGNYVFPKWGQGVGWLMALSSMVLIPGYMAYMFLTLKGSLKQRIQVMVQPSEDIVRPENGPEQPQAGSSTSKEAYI

As a reminder, the EC50 is the concentration at which the effect is half-maximal. In the case of `C[N+](C)(C)CC(=O)O` [Betaine], the EC50 in assay [1] was 11.6 mM; in assay [2], roughly 27 mM; in assay [3], 1.69 mM.
